Test system: DMS-114 complex spheroids with HUVEC/MSC, growth % test/control
Assay: Anticancer human tumor DMS-114 cell line growth inhibition [AhR];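 note: spheroids exposed to agents for 7 days before readout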;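 for viability, T/C: 100% = DMSO vehicle control wells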
Settings: for IC50: curve of first compound; for viability, T/C: stronger effect = lower value
Outline: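 Complex tumor spheroids co-cultured with HUVEC and human MSC stroma; AhR antagonists tested in combination with standard-of-care and investigational agents. Top concentration at or near clinical Cmax (else 10 microM), half-log dilutions; growth expressed as percent test/control.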

[1] = second compound 0.1 µM, first compound 0.0316 µM
[2] = second compound 0.1 µM, first compound 0.1 µM
[3] = second compound 0.1 µM, first compound 0.316 µM
[4] = second compound 0.1 µM, first compound 1 µM
[5] = second compound 0.1 µM, first compound 3.16 µM
[6] = second compound 0.1 µM, first compound 10 µM
[7] = second compound 0.316 µM, first compound 0.0316 µM
[8] = second compound 0.316 µM, first compound 0.1 µM
[9] = second compound 0.316 µM, first compound 0.316 µM
[10] = second compound 0.316 µM, first compound 1 µM
[11] = second compound 0.316 µM, first compound 3.16 µM
[12] = second compound 0.316 µM, first compound 10 µM
[13] = second compound 1 µM, first compound 0.0316 µM
[14] = second compound 1 µM, first compound 0.1 µM
[15] = second compound 1 µM, first compound 0.316 µM
[16] = second compound 1 µM, first compound 1 µM
[17] = second compound 1 µM, first compound 3.16 µM
[18] = second compound 1 µM, first compound 10 µM
[19] = second compound 3.16 µM, first compound 0.0316 µM
[20] = second compound 3.16 µM, first compound 0.1 µM
[21] = second compound 3.16 µM, first compound 0.316 µM
[22] = second compound 3.16 µM, first compound 1 µM
[23] = second compound 3.16 µM, first compound 3.16 µM
[24] = second compound 3.16 µM, first compound 10 µM
[25] = second compound 10 µM, first compound 0.0316 µM
[26] = second compound 10 µM, first compound 0.1 µM
[27] = second compound 10 µM, first compound 0.316 µM
[28] = second compound 10 µM, first compound 1 µM
[29] = second compound 10 µM, first compound 3.16 µM
[30] = second compound 10 µM, first compound 10 µM
[31] = second compound 0.1 µM, first compound 0.00949 µM
[32] = second compound 0.1 µM, first compound 0.03 µM
[33] = second compound 0.1 µM, first compound 0.0949 µM
[34] = second compound 0.1 µM, first compound 0.3 µM
[35] = second compound 0.316 µM, first compound 0.00949 µM
[36] = second compound 0.316 µM, first compound 0.03 µM
[37] = second compound 0.316 µM, first compound 0.0949 µM
[38] = second compound 0.316 µM, first compound 0.3 µM
[39] = second compound 1 µM, first compound 0.00949 µM
[40] = second compound 1 µM, first compound 0.03 µM
[41] = second compound 1 µM, first compound 0.0949 µM
[42] = second compound 1 µM, first compound 0.3 µM
[43] = second compound 3.16 µM, first compound 0.00949 µM
[44] = second compound 3.16 µM, first compound 0.03 µM
[45] = second compound 3.16 µM, first compound 0.0949 µM
[46] = second compound 3.16 µM, first compound 0.3 µM
[47] = second compound 10 µM, first compound 0.00949 µM
[48] = second compound 10 µM, first compound 0.03 µM
[49] = second compound 10 µM, first compound 0.0949 µM
[50] = second compound 10 µM, first compound 0.3 µM

SMILES: CC1(C)CCC(CN2CCN(c3ccc(C(=O)NS(=O)(=O)c4ccc(NCC5CCOCC5)c([N+](=O)[O-])c4)c(Oc4cnc5[nH]ccc5c4)c3)CC2)=C(c2ccc(Cl)cc2)C1 + Cc1cncc(-c2nc(NCCc3c[nH]c4ccccc34)c3ncn(C(C)C)c3n2)c1
- IC50 (second compound 0.1 µM): > 10 µM
- IC50 (second compound 0.316 µM): > 10 µM
- IC50 (second compound 1 µM): > 10 µM
- IC50 (second compound 3.16 µM): > 10 µM
- IC50 (second compound 10 µM): 6.39 µM
- viability, T/C [1]: 91.9%
- viability, T/C [2]: 92.7%
- viability, T/C [3]: 101%
- viability, T/C [4]: 106%
- viability, T/C [5]: 94.9%
- viability, T/C [6]: 110%
- viability, T/C [7]: 91.5%
- viability, T/C [8]: 95.7%
- viability, T/C [9]: 95.5%
- viability, T/C [10]: 107%
- viability, T/C [11]: 102%
- viability, T/C [12]: 98.9%
- viability, T/C [13]: 102%
- viability, T/C [14]: 102%
- viability, T/C [15]: 108%
- viability, T/C [16]: 97.6%
- viability, T/C [17]: 110%
- viability, T/C [18]: 101%
- viability, T/C [19]: 96.8%
- viability, T/C [20]: 86.8%
- viability, T/C [21]: 93.8%
- viability, T/C [22]: 103%
- viability, T/C [23]: 96.3%
- viability, T/C [24]: 84.7%
- viability, T/C [25]: 50.9%
- viability, T/C [26]: 60.2%
- viability, T/C [27]: 58.3%
- viability, T/C [28]: 47.8%
- viability, T/C [29]: 45%
- viability, T/C [30]: 53.7%

SMILES: CC1COCCN1c1cc(C2(S(C)(=N)=O)CC2)nc(-c2ccnc3[nH]ccc23)n1 (stereo not given) + Cc1cncc(-c2nc(NCCc3c[nH]c4ccccc34)c3ncn(C(C)C)c3n2)c1
- IC50 (second compound 0.1 µM): 6.13 µM
- IC50 (second compound 0.316 µM): 5.18 µM
- IC50 (second compound 1 µM): 5.9 µM
- IC50 (second compound 3.16 µM): 4.84 µM
- IC50 (second compound 10 µM): 0.933 µM
- viability, T/C [1]: 98.5%
- viability, T/C [2]: 96%
- viability, T/C [3]: 119%
- viability, T/C [4]: 115%
- viability, T/C [5]: 81.9%
- viability, T/C [6]: 26.5%
- viability, T/C [7]: 105%
- viability, T/C [8]: 111%
- viability, T/C [9]: 100%
- viability, T/C [10]: 99.9%
- viability, T/C [11]: 64.1%
- viability, T/C [12]: 31%
- viability, T/C [13]: 122%
- viability, T/C [14]: 119%
- viability, T/C [15]: 114%
- viability, T/C [16]: 87.7%
- viability, T/C [17]: 77.3%
- viability, T/C [18]: 30.2%
- viability, T/C [19]: 98%
- viability, T/C [20]: 85.7%
- viability, T/C [21]: 93.5%
- viability, T/C [22]: 81.1%
- viability, T/C [23]: 64.3%
- viability, T/C [24]: 26%
- viability, T/C [25]: 53%
- viability, T/C [26]: 52.3%
- viability, T/C [27]: 67.7%
- viability, T/C [28]: 41.7%
- viability, T/C [29]: 39.8%
- viability, T/C [30]: 19.3%

SMILES: CCN(c1cc(-c2ccc(CN3CCOCC3)cc2)cc(C(=O)NCc2c(C)cc(C)[nH]c2=O)c1C)C1CCOCC1 + Cc1cncc(-c2nc(NCCc3c[nH]c4ccccc34)c3ncn(C(C)C)c3n2)c1
- IC50 (second compound 0.1 µM): > 3 µM
- IC50 (second compound 0.316 µM): > 3 µM
- IC50 (second compound 1 µM): > 3 µM
- IC50 (second compound 3.16 µM): > 3 µM
- IC50 (second compound 10 µM): 0.361 µM
- viability, T/C [31]: 92.9%
- viability, T/C [32]: 97.4%
- viability, T/C [33]: 92.9%
- viability, T/C [34]: 92.6%
- viability, T/C (second compound 0.1 µM, first compound 0.949 µM): 82.7%
- viability, T/C (second compound 0.1 µM, first compound 3 µM): 70.8%
- viability, T/C [35]: 94.9%
- viability, T/C [36]: 89.3%
- viability, T/C [37]: 109%
- viability, T/C [38]: 90.5%
- viability, T/C (second compound 0.316 µM, first compound 0.949 µM): 78.9%
- viability, T/C (second compound 0.316 µM, first compound 3 µM): 59%
- viability, T/C [39]: 99.1%
- viability, T/C [40]: 101%
- viability, T/C [41]: 95.9%
- viability, T/C [42]: 91.2%
- viability, T/C (second compound 1 µM, first compound 0.949 µM): 76.6%
- viability, T/C (second compound 1 µM, first compound 3 µM): 68.8%
- viability, T/C [43]: 99.3%
- viability, T/C [44]: 97.8%
- viability, T/C [45]: 90%
- viability, T/C [46]: 92%
- viability, T/C (second compound 3.16 µM, first compound 0.949 µM): 74.8%
- viability, T/C (second compound 3.16 µM, first compound 3 µM): 63.5%
- viability, T/C [47]: 58.2%
- viability, T/C [48]: 55.2%
- viability, T/C [49]: 54.3%
- viability, T/C [50]: 50.9%
- viability, T/C (second compound 10 µM, first compound 0.949 µM): 45.7%
- viability, T/C (second compound 10 µM, first compound 3 µM): 46.4%

SMILES: Nc1ncn(C2CC(O)C(CO)S2)c(=O)n1 (stereo not given) + Cc1cncc(-c2nc(NCCc3c[nH]c4ccccc34)c3ncn(C(C)C)c3n2)c1
- IC50 (second compound 0.1 µM): 0.222 µM
- IC50 (second compound 0.316 µM): 0.219 µM
- IC50 (second compound 1 µM): 0.294 µM
- IC50 (second compound 3.16 µM): 0.293 µM
- IC50 (second compound 10 µM): 0.0438 µM
- viability, T/C (second compound 0.1 µM, first compound 0.000949 µM): 101%
- viability, T/C (second compound 0.1 µM, first compound 0.003 µM): 110%
- viability, T/C [31]: 80.4%
- viability, T/C [32]: 93.2%
- viability, T/C [33]: 57.6%
- viability, T/C [34]: 46.8%
- viability, T/C (second compound 0.316 µM, first compound 0.000949 µM): 86.7%
- viability, T/C (second compound 0.316 µM, first compound 0.003 µM): 97.1%
- viability, T/C [35]: 92.2%
- viability, T/C [36]: 84%
- viability, T/C [37]: 59.2%
- viability, T/C [38]: 46.5%
- viability, T/C (second compound 1 µM, first compound 0.000949 µM): 87.7%
- viability, T/C (second compound 1 µM, first compound 0.003 µM): 95.7%
- viability, T/C [39]: 99.5%
- viability, T/C [40]: 80.1%
- viability, T/C [41]: 73%
- viability, T/C [42]: 49.3%
- viability, T/C (second compound 3.16 µM, first compound 0.000949 µM): 102%
- viability, T/C (second compound 3.16 µM, first compound 0.003 µM): 98.6%
- viability, T/C [43]: 93.2%
- viability, T/C [44]: 94.5%
- viability, T/C [45]: 58.7%
- viability, T/C [46]: 49.5%
- viability, T/C (second compound 10 µM, first compound 0.000949 µM): 57%
- viability, T/C (second compound 10 µM, first compound 0.003 µM): 51.4%
- viability, T/C [47]: 55.5%
- viability, T/C [48]: 54.7%
- viability, T/C [49]: 43.7%
- viability, T/C [50]: 37.7%

From PubChem BioAssay AID1919008 (Molecular Pharmacology Branch, DTP, NCI, 2023)
